From article PMC12645998, “Optimization of VE607 to generate analogs with improved neutralization activities against SARS-CoV-2 variants” (Journal of Virology, 2025) come the findings set out here.

In assay [1] the test system is SARS CoV-2 D614G Spike pseudovirus. Type of assay: cell-based.
Assay [2] deals with SARS-CoV-2 spike HPM7 (Severe acute respiratory syndrome coronavirus 2, UniProt P0DTC2, A892P/A899P/A942P/F817P/K986P/R682G/R683S/R685S/T883C/V705C/V987P).

One may read the IC50 as the concentration at which inhibition is half-maximal. Higher therefore signals weaker potency in that assay. In assay [1], `O[C@@H](COc1cccc(OC[C@H](O)CN2CCCCC2)c1)CN1CCCCC1` [(R,R)-VE607, reference compound] registered a half-inhibitory concentration (IC50) of 660 nM. `CN(C)C[C@@H](O)COc1cc(Br)cc(OC[C@H](O)CN(C)C)c1` [Compound 27] gave an IC50 in assay [1] of 780 nM. Besides, in assay [2], the “Particles in closed conformation (3 RBD down)” value stood at 16.9% and the “Particles in open conformation (1 RBD up)” value is listed as 68.0%.

In turn, `CN1CCN(C[C@@H](O)COc2cc(Br)cc(OC[C@H](O)CN3CCN(C)CC3)c2)CC1` [Compound 30] registered a half-maximal inhibitory concentration (IC50) in assay [1] of 1310 nM.

`CCN(C)C[C@@H](O)COc1cc(Br)cc(OC[C@H](O)CN(C)CC)c1` [Compound 33] came in with a half-inhibitory concentration (IC50) in assay [1] of 1150 nM.
